Key:
[1] = target: T1, GSPT1 (Homo sapiens, UniProt P15170+Q96SW2); assay: GSPT1 HiBit degradation assay; assay type: cell-based; details: Table 3; HEK293 LgBiT cells expressing GSPT1_HiBiT, luminescence after 6 hours
T1 construct: host or cells: HEK293 LgBiT cell line
How it was run: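 Degradation readout is luminescence at 6 h, with DC50 taken as the concentration giving 50% GSPT1 loss. Compound titrations were added together with endurazine (0.5× final) to HEK293 LgBiT/GSPT1-HiBiT cells seeded the day before and kept at 37 °C.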

[2] = tested on: HeLa KRas G12C cells; assay: Cellular growth inhibition assay (CTG), HeLa KRas G12C cells; assay type: cell-based; details: Homo sapiens, CellTiter-Glo 2.0, day-5
Method: Cells were seeded in Poly-D-lysine-treated 384-well white plates, with 25 μL cell suspension at 250 cells/well for continuous treatments, and 1000 cells/well for washout treatments. Plates were spun at 300×g for 3 minutes, and cells were cultured at 37° C. with 5% CO2 in a humidified tissue culture incubator.
After 24 hours, the test compounds were diluted with cell culture medium in 96 deep well plates. DMSO was used as a negative control. A 25 μL aliquot of compound-containing medium was added in each well, at a final top concentration of 10 μM or 30 μM test compound, with 3-fold dilutions. For washout assays, after 4 hours, cell medium with compound was removed, and the cells were washed with 75p L fresh medium. Plates were then spun at 300×g for 3 minutes and replaced with 50 μL fresh medium in each well. Plates were then spun at 300×g for 3 minutes again and cultured at 37° C. with 5% CO2.
At day-0 and day-5 of compound treatments, cell viability was quantified with CellTiter-Glo 2.0 (Promega). After equilibrating cell plates at room temperature for 30 minutes, 25 μL CellTiter-Glo 2.0 reagent was dispensed into each well (on top of 50 μL of cell culture). Plates were mixed on a shaker for 2 minutes at 500 rpm, followed by a 10-minute incubation at room temperature. Luminescence readings were measured with an EnVision Plate Reader. Data was normalized to DMSO treated day-0 cell wells. A four-parameter non-linear regression curve fit was applied to dose-response data in Prism to determine the half maximal growth inhibitory concentration (GI50) of each compound.

T1 sequence (P15170 whole entry): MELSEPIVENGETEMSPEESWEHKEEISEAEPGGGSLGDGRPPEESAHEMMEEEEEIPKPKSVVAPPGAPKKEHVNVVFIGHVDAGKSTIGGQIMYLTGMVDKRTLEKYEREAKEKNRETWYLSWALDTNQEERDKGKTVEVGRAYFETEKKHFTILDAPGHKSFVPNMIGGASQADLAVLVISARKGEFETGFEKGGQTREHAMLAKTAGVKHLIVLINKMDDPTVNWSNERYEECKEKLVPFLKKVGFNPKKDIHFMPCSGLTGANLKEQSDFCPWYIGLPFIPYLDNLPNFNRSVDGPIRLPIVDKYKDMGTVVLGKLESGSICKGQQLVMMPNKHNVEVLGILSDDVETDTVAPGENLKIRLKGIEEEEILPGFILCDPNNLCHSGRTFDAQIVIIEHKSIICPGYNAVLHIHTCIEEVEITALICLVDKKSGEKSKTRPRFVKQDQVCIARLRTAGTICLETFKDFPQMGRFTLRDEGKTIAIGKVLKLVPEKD
T1 sequence (Q96SW2 whole entry): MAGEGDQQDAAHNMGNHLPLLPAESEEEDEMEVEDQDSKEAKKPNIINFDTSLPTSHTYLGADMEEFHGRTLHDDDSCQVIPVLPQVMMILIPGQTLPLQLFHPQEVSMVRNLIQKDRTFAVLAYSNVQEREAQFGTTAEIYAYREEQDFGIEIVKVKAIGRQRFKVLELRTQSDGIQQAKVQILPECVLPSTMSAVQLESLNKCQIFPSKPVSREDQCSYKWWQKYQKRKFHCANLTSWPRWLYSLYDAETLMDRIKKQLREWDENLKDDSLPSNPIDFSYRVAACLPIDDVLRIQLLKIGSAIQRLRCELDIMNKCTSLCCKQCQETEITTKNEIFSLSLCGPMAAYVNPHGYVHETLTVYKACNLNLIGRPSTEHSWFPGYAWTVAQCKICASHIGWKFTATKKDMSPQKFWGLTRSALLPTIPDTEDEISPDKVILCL
T1 sequence (Q16531 whole entry partner): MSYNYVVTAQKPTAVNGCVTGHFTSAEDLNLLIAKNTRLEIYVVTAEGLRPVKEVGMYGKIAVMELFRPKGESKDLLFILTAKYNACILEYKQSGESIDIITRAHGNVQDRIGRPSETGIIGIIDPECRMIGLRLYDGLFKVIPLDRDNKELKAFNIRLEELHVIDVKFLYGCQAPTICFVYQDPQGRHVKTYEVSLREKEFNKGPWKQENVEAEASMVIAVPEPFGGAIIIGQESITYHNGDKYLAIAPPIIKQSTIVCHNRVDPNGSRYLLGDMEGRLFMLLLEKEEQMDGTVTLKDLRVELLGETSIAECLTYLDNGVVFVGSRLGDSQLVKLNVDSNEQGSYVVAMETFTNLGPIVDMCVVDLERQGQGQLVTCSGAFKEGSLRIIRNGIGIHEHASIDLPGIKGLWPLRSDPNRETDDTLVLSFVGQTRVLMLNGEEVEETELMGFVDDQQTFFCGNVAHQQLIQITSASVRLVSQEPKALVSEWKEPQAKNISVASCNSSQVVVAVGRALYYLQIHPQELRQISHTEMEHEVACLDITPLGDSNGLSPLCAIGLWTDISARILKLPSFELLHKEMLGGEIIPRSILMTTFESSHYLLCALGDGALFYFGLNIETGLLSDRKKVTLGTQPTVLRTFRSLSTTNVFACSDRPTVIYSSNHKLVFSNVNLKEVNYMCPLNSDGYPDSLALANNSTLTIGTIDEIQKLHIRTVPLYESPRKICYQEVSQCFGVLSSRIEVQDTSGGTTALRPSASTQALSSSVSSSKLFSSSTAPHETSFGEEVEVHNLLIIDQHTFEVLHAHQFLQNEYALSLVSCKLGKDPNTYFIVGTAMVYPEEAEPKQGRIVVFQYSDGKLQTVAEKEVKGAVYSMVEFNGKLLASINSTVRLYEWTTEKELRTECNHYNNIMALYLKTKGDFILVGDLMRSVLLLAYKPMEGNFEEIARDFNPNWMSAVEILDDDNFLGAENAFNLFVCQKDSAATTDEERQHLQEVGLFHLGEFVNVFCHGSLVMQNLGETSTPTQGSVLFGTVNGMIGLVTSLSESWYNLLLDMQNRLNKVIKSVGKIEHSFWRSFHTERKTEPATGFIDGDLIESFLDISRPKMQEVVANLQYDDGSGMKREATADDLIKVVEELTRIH

SMILES | DC50 [1] [µM] | GI50 [2] [µM]
C=C(F)C(=O)N1CCN(c2nc(OC[C@@H]3CCCN3CCCCCCCCc3cc(Cl)cc(NC(=O)NCc4ccc5c(c4)CN(C4CCC(=O)NC4=O)C5=O)c3)nc3c2CCN(c2cccc4cccc(Cl)c24)C3)C[C@@H]1CC#N (stereo partly drawn) [Compound I-1, 1-[3-chloro-5-[8-[(2S)-2-[[7-(8-chloro-1-naphthyl)-4-[(3S)-3-(cyanomethyl)-4-(2-fluoroprop-2-enoyl)piperazin-1-yl]-6,8-dihydro-5H-pyrido[3,4-d]pyrimidin-2-yl]oxymethyl]pyrrolidin-1-yl]octyl]phenyl]-3-[[2-(2,6-dioxo-3-piperidyl)-1-oxo-isoindolin-5-yl]methyl]urea] | 0.25 to 5 | 1 to 3
C=C(F)C(=O)N1CCN(c2nc(OC[C@@H]3CCCN3CCOCCOCCOCCOCCOCCOCCc3cc(Cl)cc(NC(=O)NCc4ccc5c(c4)CN(C4CCC(=O)NC4=O)C5=O)c3)nc3c2CCN(c2cccc4cccc(Cl)c24)C3)C[C@@H]1CC#N (stereo partly drawn) [Compound I-2, 1-(3-chloro-5-(20-((S)-2-(((7-(8-chloronaphthalen-1-yl)-4-((S)-3-(cyanomethyl)-4-(2-fluoroacryloyl)piperazin-1-yl)-5,6,7,8-tetrahydropyrido[3,4-d]pyrimidin-2-yl)oxy)methyl)pyrrolidin-1-yl)-3,6,9,12,15,18-hexaoxaicosyl)phenyl)-3-((2-(2,6-dioxopiperidin-3-yl)-1-oxoisoindolin-5-yl)methyl)urea] | 5 to 10 | > 10
C=C(F)C(=O)N1CCN(c2nc(OC[C@@H]3CCCN3CCCCCCCCNc3cccc4c3CN(C3CCC(=O)NC3=O)C4=O)nc3c2CCN(c2cccc4cccc(Cl)c24)C3)C[C@@H]1CC#N (stereo partly drawn) [Compound I-3, 2-((2S)-4-(7-(8-chloronaphthalen-1-yl)-2-(((2S)-1-(8-((2-(2,6-dioxopiperidin-3-yl)-1-oxoisoindolin-4-yl)amino)octyl)pyrrolidin-2-yl)methoxy)-5,6,7,8-tetrahydropyrido[3,4-d]pyrimidin-4-yl)-1-(2-fluoroacryloyl)piperazin-2-yl)acetonitrile] | > 10 | 3 to 10

Now from value to compound:

DC50 [1] [µM] | GI50 [2] [µM] | SMILES
> 10 | 3 to 10 | C=C(F)C(=O)N1CCN(c2nc(OC[C@@H]3CCCN3CCCCCCCCc3cccc4c3CN(C3CCC(=O)NC3=O)C4=O)nc3c2CCN(c2cccc4cccc(Cl)c24)C3)C[C@@H]1CC#N (stereo partly drawn) [Compound I-4, 2-[(2S)-4-[7-(8-chloro-1-naphthyl)-2-[[(2S)-1-[8-[2-(2,6-dioxo-3-piperidyl)-1-oxo-isoindolin-4-yl]octyl]pyrrolidin-2-yl]methoxy]-6,8-dihydro-5H-pyrido[3,4-d]pyrimidin-4-yl]-1-(2-fluoroprop-2-enoyl)piperazin-2-yl]acetonitrile]
< 0.25 | > 10 | C=CC(=O)N1CCN(c2nc(NCCCCCCCCc3cc(Cl)cc(NC(=O)NCc4ccc5c(c4)CN(C4CCC(=O)NC4=O)C5=O)c3)nc3c(F)c(-c4cc(O)cc5ccccc45)c(Cl)cc23)CC1 (stereo not drawn) [Compound I-5, 1-[3-chloro-5-[8-[[6-chloro-8-fluoro-7-(3-hydroxy-1-naphthyl)-4-(4-prop-2-enoylpiperazin-1-yl)quinazolin-2-yl]amino]octyl]phenyl]-3-[[2-(2,6-dioxo-3-piperidyl)-1-oxo-isoindolin-5-yl]methyl]urea]
> 10 | > 10 | C=CC(=O)N1CCN(c2nc(NCCCCCCCCNc3cccc4c3CN(C3CCC(=O)NC3=O)C4=O)nc3c(F)c(-c4cc(O)cc5ccccc45)c(Cl)cc23)CC1 (stereo not drawn) [Compound I-6, 3-(4-((8-((4-(4-acryloylpiperazin-1-yl)-6-chloro-8-fluoro-7-(3-hydroxynaphthalen-1-yl)quinazolin-2-yl)amino)octyl)-amino)-1-oxoisoindolin-2-yl)piperidine-2,6-dione]

Reference: patent publication US20240238424A1, “HETEROBIFUNCTIONAL COMPOUNDS AND METHODS OF TREATING DISEASE” (Halda Therapeutics OpCo, Inc., priority 2021, published 2024)
